{"source": "paper PMC8873251", "about": "“An amiloride derivative is active against the F1Fo-ATP synthase and cytochrome bd oxidase of Mycobacterium tuberculosis” (Communications Biology, 2022)", "key": {"[1]": {"molecular_target": "T1, F1Fo-ATP synthase c-subunit (c-ring) (Mycolicibacterium phlei, UniProt A0A5N5V239)", "T1 construct": "gene atpE", "T1 sequence (A0A5N5V239 1-86)": "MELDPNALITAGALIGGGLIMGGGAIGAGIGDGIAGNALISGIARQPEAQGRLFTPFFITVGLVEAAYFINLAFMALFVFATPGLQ", "assay": "MALDI-MS time course of covalent c-subunit labelling", "assay_type": "binding"}, "cytochrome bd oxidase": {"molecular_target": "T2, cytochrome bd oxidase (Mycobacterium tuberculosis, UniProt L7N662+O06139)", "T2 construct": "gene cydA", "T2 sequence (O06139 entry or part of it)": "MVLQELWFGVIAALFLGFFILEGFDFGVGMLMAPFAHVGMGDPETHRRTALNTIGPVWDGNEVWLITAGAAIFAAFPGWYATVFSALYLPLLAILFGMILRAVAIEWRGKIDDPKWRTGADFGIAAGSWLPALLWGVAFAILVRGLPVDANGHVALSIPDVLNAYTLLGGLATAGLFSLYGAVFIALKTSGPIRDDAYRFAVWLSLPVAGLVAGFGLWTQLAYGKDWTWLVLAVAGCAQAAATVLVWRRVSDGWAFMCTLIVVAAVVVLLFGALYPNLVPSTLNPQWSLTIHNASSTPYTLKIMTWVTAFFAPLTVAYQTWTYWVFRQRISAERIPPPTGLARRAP", "T2 sequence (L7N662 entry or part of it)": "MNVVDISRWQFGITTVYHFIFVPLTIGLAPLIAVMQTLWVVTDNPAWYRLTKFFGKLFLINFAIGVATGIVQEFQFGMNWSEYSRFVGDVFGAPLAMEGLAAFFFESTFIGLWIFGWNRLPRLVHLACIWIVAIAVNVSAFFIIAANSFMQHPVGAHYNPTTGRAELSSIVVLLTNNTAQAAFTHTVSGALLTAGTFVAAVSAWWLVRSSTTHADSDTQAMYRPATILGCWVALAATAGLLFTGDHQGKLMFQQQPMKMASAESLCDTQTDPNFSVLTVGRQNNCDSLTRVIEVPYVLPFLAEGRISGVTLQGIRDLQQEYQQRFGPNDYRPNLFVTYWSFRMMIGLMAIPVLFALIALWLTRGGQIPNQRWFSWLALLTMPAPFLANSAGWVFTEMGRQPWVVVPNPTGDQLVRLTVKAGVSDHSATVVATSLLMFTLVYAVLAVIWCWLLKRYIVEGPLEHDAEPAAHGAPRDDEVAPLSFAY", "assay": "malate-driven oxygen consumption in IMVs pre-inhibited with TB47, titration; empty-vector control", "assay_type": "biochemical"}, "[2]": {"molecular_target": "T1, F1Fo-ATP synthase c-subunit (c-ring)", "assay": "MALDI-MS competition with DCCD labelling of purified c-ring", "assay_type": "binding"}}}
{"compound": "C(=NC1CCCCC1)=NC1CCCCC1", "note": "[DCCD, N,N'-dicyclohexylcarbodiimide]", "values": [{"measurement": "MALDI-MS time course of covalent c-subunit labelling", "setting": "[1]", "value": "Time course of DCCD labelling in purified M. phlei c-rings in the presence of the indicated amounts of HMA"}]}
{"compound": "N=C(N)NC(=O)c1nc(-c2cc3ccccc3o2)c(N)nc1N", "note": "[HM2-16F]", "values": [{"measurement": "IC50", "setting": "cytochrome bd oxidase", "value": 21.2, "unit": "µM"}]}
{"compound": "N=C(N)NC(=O)c1nc(Cl)c(N2CCCCCC2)nc1N", "note": "[HMA, 5-(N,N-hexamethylene)amiloride]", "values": [{"measurement": "MALDI-MS competition with DCCD labelling of purified c-ring", "setting": "[2]", "value": "HMA was able to outcompete the canonical c-ring covalent inhibitor DCCD for inhibition of the M. phlei F1Fo-ATP synthase c-subunit"}]}
